We go through 1 molecule from US11452725B2, “Chiral diaryl macrocycles and uses thereof” (TURNING POINT THERAPEUTICS, INC., priority 2015, dated 2022).

Test [1] has as its system AKT. Put plainly: Immunoblotting downstream signaling, Karpas-299 cells. The test is classed as cell-based. To be noted: Homo sapiens, read-out: downstream AKT phosphorylation IC50. As for the experimental part: (§1) NSCLC cell line H2228 (harboring endogenous EML4-ALK fusion gene), HCC78 cells (harboring endogenous SLC34A2-ROS1 fusion gene), Karpas-299 cells (harboring endogenous NPM-ALK fusion gene) or SET-2 (harboring endogenous JAK2V617F activating mutation) were cultured in RPMI medium, and KM12 (harboring endogenous TPM3-TRKA fusion gene) cell line was cultured in DMEM medium, both supplemented with 10% fetal bovine serum and 100 U/mL of penicillin/streptomycin. Ba/F3 and NIH3T3 cells stably expressing ALK or ROS1 (WT or mutant) were culture as mentioned above. […] Protein lysates (approximately 20 μg) was resolved on 4-12% Bolt Bis-Tris precasted gels with MES running buffer (Life Technologies), transferred to nitrocellulose membranes using Trans-Blot Turbo Transfer System (Bio-Rad) and detected with antibodies targeting phosphorylated ALK Y1604 (Cell Signaling Technology), total ALK (Cell Signaling Technology), phosphorylated ROS1 and total ROS1 (Cell Signaling Technology), phosphorylated TRK A/B (Cell Signaling Technology), total TRKA antibody (Santa Cruz Biotechnology), phosphorylated STAT3 and STAT5, total STAT3 and STAT5 (Cell Signaling Technology), phosphorylated AKT (Cell Signaling Technology), total AKT (Cell Signaling Technology), phosphorylated ERK (Cell Signaling Technology), total ERK (Cell Signaling Technology) and Tubulin (Sigma). […]

For the next test, the system named is STAT3. The description is as above. The test is classed as cell-based. To be noted: Homo sapiens, read-out: downstream STAT3 phosphorylation IC50. The procedure:
as §1

Another test deals with Ba/F3 EML4-ALK WT tumors. Kind of test: Ba/F3 EML4-ALK WT subcutaneous xenograft model. The note with it: 14 days. The test is classed as in vivo, SCID/Beige mice.
The subject of test [2] is Ba/F3 SDC4-ROS1 G2032R cell line. Put plainly: Cell proliferation assay (CellTiter-Glo). To be noted: Mus musculus, BaF3; 72 hours. The test is classed as cell-based. For orientation: Cellular ATP, detected with luciferase, serves as a proxy for viable cell number.
The target in a further test is T1, IRR (Homo sapiens, UniProt P14616).
T1 construct: purchased Reaction Biology Corporation (contract assay)
T1 sequence (P14616 27-1297): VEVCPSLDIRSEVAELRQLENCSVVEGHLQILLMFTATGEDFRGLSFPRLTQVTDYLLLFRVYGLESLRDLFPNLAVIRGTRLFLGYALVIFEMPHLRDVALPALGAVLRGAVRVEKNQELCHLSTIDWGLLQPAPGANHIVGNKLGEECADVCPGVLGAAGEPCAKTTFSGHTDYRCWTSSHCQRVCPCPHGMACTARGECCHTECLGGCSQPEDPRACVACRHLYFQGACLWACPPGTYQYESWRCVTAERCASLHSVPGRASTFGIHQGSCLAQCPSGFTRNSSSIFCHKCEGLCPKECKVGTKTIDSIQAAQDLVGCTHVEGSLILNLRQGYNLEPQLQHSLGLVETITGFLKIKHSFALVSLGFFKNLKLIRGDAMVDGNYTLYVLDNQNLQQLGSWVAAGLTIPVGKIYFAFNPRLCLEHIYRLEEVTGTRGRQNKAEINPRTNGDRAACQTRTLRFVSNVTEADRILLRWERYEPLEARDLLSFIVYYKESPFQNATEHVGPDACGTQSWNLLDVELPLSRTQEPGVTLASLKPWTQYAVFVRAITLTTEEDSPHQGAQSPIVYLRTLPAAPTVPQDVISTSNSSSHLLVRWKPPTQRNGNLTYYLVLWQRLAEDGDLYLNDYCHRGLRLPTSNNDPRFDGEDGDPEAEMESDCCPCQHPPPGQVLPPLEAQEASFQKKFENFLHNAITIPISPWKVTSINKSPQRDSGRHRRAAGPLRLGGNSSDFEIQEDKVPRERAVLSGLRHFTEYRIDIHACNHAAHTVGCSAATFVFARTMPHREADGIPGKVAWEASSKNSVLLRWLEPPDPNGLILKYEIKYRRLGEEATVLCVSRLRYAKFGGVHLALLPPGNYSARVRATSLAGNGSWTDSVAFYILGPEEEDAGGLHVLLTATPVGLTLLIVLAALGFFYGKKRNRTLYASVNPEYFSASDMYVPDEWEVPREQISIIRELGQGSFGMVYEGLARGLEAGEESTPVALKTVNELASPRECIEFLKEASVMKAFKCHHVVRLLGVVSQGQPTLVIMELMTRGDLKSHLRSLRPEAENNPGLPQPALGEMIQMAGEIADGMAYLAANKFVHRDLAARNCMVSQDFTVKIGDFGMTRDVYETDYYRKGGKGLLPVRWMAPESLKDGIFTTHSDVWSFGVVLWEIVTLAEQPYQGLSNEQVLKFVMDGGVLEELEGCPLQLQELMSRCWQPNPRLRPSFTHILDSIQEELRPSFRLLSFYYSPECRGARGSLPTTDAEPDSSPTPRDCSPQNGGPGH
Kind of test: Biochemical kinase assay (Reaction Biology). To be noted: 10 μM ATP.

For the next test, the target named is T2, RET (Homo sapiens, UniProt P07949).
T2 construct: purchased Reaction Biology Corporation (contract assay)
T2 sequence (P07949 29-1114): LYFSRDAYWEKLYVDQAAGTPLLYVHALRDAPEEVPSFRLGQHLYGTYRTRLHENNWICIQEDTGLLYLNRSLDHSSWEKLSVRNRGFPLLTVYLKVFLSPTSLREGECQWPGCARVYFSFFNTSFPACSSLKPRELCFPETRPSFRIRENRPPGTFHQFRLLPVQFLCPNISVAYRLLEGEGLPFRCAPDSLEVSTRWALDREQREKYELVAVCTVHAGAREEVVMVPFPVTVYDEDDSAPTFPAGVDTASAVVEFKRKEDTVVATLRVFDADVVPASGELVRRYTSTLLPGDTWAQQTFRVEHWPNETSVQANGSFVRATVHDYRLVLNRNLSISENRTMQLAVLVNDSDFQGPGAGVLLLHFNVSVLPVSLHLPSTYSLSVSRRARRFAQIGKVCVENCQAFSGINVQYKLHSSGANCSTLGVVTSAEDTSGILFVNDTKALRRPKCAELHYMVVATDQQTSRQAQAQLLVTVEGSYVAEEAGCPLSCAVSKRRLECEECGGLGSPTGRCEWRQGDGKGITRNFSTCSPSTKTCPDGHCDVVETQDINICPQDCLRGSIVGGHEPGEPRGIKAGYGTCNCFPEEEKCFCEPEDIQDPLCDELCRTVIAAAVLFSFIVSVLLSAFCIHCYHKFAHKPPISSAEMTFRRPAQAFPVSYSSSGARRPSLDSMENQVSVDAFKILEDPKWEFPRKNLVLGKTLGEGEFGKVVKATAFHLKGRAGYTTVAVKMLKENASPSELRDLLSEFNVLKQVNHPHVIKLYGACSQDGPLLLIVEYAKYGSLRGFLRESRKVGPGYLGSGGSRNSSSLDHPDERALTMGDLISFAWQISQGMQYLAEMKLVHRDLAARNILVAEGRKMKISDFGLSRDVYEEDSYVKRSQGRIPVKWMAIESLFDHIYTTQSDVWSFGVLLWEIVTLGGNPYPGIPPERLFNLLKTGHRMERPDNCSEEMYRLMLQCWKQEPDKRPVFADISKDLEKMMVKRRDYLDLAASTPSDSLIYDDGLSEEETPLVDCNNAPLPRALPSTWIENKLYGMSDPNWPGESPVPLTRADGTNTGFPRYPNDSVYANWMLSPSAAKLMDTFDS
Kind of test: Biochemical kinase assay (Reaction Biology). The note with it: 10 μM ATP.

Test [3] relates to AKT. Put plainly: Immunoblotting downstream signaling, KM12 cells. The test is classed as cell-based. To be noted: Homo sapiens; KM12 cell line; read-out: downstream AKT phosphorylation IC50. The procedure: as §1
For orientation: Immunoblotting shows a protein as a band on a membrane.

In the next test the test system is ERK. Put plainly: Immunoblotting downstream signaling, KM12 cells. The test is classed as cell-based. The note with it: Homo sapiens; KM12 cell line; read-out: downstream ERK phosphorylation IC50. As for the experimental part:
as §1

The next test deals with STAT5. Kind of test: Immunoblotting cellular phosphorylation assay, SET-2 cells (JAK2 V617F). It counts as cell-based. To be noted: Homo sapiens, SET-2, 4 h, 4 hours treatment, read-out: STAT5 phosphorylation of SET-2 cell line IC50. As for the experimental part:
as §1

For the next test, the target named is NPM-ALK (Homo sapiens, UniProt Q9UM73). Kind of test: In vivo pharmacodynamics: ALK phosphorylation in Karpas 299 tumors (immunoblotting). Also noted: species or system mice. As for the experimental part:
Mice bearing xenograft tumors were humanely euthanized and tumors were resected and snap frozen in liquid nitrogen and stored at −80° C. Frozen tumor samples were processed at 4° C. in 1× Cell Lysis Buffer (Cell Signaling Technologies) to extract proteins. SDS loading samples were prepared by adding one volume of 4×LDS Sample Buffer (Life Technologies, Inc) to three volumes of protein lysate. Tumor SDS protein samples were processed by SDS-PAGE and immunoblotted with rabbit anti-phosphorylated ALK and mouse anti-actin antibodies (Cell Signaling Technologies). The signals from immunoblot were detected by C-DiGit Blot Scanner from LI-COR and the signal intensity were quantified using the Image Studio Digit software (LI-COR).
The level of ALK phosphorylation was determined by immunoblotting combined with signal quantification by the Image Studio Digit Software. […] At the dose of 15 mg/kg, ALK phosphorylation was reduced to <10% of the control level at 3 hours post oral administration and was maintained at about 21% of the control level at 12 hours post dosing.

A further test deals with T3, IGFR (Homo sapiens, UniProt P08069).
T3 construct: purchased Reaction Biology Corporation (contract assay)
T3 sequence (P08069 31-1367): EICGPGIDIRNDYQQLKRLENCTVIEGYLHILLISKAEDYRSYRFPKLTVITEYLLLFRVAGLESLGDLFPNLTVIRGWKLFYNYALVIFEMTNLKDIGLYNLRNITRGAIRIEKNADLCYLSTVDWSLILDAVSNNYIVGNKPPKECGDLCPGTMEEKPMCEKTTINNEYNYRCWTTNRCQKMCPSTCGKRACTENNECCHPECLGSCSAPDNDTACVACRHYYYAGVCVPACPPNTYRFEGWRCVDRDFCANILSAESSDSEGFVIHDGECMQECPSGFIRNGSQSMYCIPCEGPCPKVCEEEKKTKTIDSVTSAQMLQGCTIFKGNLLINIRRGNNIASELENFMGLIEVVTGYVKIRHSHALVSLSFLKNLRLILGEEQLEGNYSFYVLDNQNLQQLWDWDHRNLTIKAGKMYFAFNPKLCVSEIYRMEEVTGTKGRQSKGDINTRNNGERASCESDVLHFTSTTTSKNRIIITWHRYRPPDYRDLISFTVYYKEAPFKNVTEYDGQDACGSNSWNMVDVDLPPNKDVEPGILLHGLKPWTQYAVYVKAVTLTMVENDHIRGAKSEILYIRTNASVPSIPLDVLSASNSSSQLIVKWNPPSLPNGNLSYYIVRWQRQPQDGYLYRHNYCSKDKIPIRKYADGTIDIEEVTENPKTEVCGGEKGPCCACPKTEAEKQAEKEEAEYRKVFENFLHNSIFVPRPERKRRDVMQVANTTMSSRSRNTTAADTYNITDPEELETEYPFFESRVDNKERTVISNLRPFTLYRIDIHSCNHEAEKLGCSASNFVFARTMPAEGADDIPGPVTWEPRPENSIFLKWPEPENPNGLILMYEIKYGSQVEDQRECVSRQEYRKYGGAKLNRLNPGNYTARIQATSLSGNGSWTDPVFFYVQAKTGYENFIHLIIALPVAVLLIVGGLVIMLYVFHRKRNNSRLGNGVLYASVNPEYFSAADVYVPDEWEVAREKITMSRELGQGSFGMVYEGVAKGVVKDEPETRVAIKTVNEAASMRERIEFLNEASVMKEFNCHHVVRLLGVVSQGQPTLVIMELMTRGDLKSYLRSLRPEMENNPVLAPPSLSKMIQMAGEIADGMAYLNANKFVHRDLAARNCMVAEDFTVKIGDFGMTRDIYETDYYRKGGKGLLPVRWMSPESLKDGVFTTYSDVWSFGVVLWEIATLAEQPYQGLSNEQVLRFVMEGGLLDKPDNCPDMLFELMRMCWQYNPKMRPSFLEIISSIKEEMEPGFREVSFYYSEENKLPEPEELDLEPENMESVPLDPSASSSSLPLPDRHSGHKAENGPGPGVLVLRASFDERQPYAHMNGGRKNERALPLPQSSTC
Put plainly: Biochemical kinase assay (Reaction Biology). The note with it: 10 μM ATP.

The subject of a further test is KM12 cell line. Put plainly: cells. The note with it: Homo sapiens, KM12, 72 h, read-out: Cell proliferation of KM12 cell line IC50.

Sequence of NPM-ALK (Q9UM73 with tags, fused parts or gaps): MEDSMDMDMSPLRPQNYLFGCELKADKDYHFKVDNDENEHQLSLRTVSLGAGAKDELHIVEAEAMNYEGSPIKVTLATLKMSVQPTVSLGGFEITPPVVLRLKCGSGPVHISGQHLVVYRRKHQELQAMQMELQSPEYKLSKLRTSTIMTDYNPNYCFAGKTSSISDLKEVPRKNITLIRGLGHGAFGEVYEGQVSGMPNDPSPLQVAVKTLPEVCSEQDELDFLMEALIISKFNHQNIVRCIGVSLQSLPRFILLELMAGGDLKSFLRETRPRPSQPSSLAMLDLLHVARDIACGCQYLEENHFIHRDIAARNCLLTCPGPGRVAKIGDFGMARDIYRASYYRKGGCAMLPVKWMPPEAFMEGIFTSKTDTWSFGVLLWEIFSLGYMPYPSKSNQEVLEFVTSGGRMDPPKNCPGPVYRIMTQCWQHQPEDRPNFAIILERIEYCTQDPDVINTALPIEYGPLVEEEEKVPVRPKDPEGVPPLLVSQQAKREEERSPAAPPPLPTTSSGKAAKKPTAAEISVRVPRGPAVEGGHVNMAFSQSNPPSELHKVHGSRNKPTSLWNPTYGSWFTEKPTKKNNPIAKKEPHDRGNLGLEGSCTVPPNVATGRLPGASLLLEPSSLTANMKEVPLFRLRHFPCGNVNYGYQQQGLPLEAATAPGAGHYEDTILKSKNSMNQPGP

As to `C[C@H]1CNC(=O)c2cnn3ccc(nc23)N[C@H](C)c2cc(F)ccc2O1` [Compound 1, (7S,13R)-11-fluoro-7,13-dimethyl-6,7,13,14-tetrahydro-1,15-ethenopyrazolo[4,3-f][1,4,8,10]benzoxatriazacyclotridecin-4(5H)-one], the IC50 in the test on AKT [1] was 1 to 3 nM; with STAT3 it was 1 to 3 nM; in test [2] it was 5 nM; at IRR, 18.1 nM; against RET, 47.1 nM; in the test with AKT [3], approximately 0.3 nM. The IC50 in the test on ERK was approximately 0.3 nM; in the test on STAT5, approximately 158 nM; on IGFR, 111 nM; with KM12 cell line it was 0.3 nM. The “Tumor growth inhibition (TGI)” value in the test on Ba/F3 EML4-ALK WT tumors (15 mg/kg/BID orally) stood at 74%. Besides, the “mice exhibiting tumor regression” value in the test on Ba/F3 EML4-ALK WT tumors (75 mg/kg BID orally) is recorded as 6 of 8. Also, the “tumor regression (REG)” value in the test with Ba/F3 EML4-ALK WT tumors (75 mg/kg BID orally) is reported as 54%. The “ALK phosphorylation, % of the control level” value at NPM-ALK (15 mg/kg BID 7 days, 3 hours post oral administration) is less than 10%; at NPM-ALK (15 mg/kg BID 7 days, 12 hours post dosing), “about 21%”; on NPM-ALK (50 mg/kg BID 7 days, 3 hours post oral administration) it was less than 5%; on NPM-ALK (50 mg/kg BID 7 days, 12 hours post dosing), “about 10%”.
